In patent US7723339B2, “Combination comprising a signal transduction inhibitor and an epothilone derivative” (Novartis AG, priority 2001, dated 2010):

Assays:
[1] = system: KAT-4 mouse thyroid carcinoma; assay: KAT-4 thyroid carcinoma tumors in SCID mice; format: in vivo; settings: for effect on tumor growth: STI571 100 mg/kg gavage once daily from day 3, EPO906 0.3 mg/kg s.c. days 6, 13, 20
Method: Study on the Effects of Combining Epothilone B Treatment of KAT-4 Mouse Thyroid Carcinoma with Treatment with STI571
Epothilone B is administered s.c. once weekly. STI571, at a dose of 100 mg/kg, is administered by gavage and given once daily. Tumor volume is determined by mesurements with calipers.
In the study four groups of tumor bearing mice are analyzed: control treated mice, mice treated with either STI571 (100 mg/kg) or 0.3 mg/kg of EPO906 alone and mice treated with both drugs. Treatment is performed on mice with an average starting size of tumor of approximatly 100 mm^3. EPO906 is given at days 6, 13 and 20 and STI571 is given once daily from day 3.

[2] = system: rat C6 glioma tumor xenografts; assay: Rat C6 glioma tumor xenografts in female BALB/C mice; format: in vivo; settings: for Delta tumor volumes (mean mm^3±SEM): q7d (i.v., days 3 and 10) alone, control 1289±178
Method: STI571 Alone, Epothilone B (EPO906) Alone and the Combination of STI571 Plus Epothilone B Versus Rat C6 Glioma Tumor Xenografts in Female BALB/C Mice
Tumors are initiated by the s.c. injection of 1×10^6 rat C6 cells (n=8/group). When the tumors reaches ˜75 mm^3, STI571 treatment is begun at 200 mg/kg, p.o., q24h.

| Compound | effect on tumor growth [1] | final tumor size as % of control tumors ([1]; end of experiment, STI571 100 mg/kg once daily, EPO906 0.3 mg/kg once weekly) | Delta tumor volumes (mean mm^3±SEM) ([2]; EPO906 1 mg/kg) | Delta tumor volumes (mean mm^3±SEM) ([2]; EPO906 2 mg/kg) | Delta tumor volume ratio treated/controls ([2]; STI571 200 mg/kg p.o. q24h, EPO906 2 mg/kg q7d) |
| --- | --- | --- | --- | --- | --- |
| C/C(=C\c1csc(C)n1)[C@@H]1C[C@@H]2O[C@]2(C)CCC[C@H](C)[C@H](O)[C@@H](C)C(=O)C(C)(C)[C@@H](O)CC(=O)O1 [EPO906, epothilone B] | statistically significant reduction of tumor growth | 69% | 864±115 mm^3 | 419±116 mm^3 | 0.325 |
| Cc1ccc(NC(=O)c2ccc(CN3CCN(C)CC3)cc2)cc1Nc1nccc(-c2cccnc2)n1 [STI571, N-{5-[4-(4-methyl-piperazino-methyl)-benzoylamido]-2-methylphenyl}-4-(3-pyridyl)-2-pyrimidine-amine] | no effect | – | – | – | – |
